Test results reported in PubChem BioAssay AID624258 (Broad Institute, 2012).
Activity calls are given as the source filed them. How the calls were made is not given here.

System: not listed separately
Test: Yeast SKN7 toxicity growth rescue counterscreen, Saccharomyces cerevisiae, plate reader, dose confirmatory (AID 624258);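 further: growth read after three days of incubation at 30 °C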;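 on growth rescue activity: 0% = median of neutral control wells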
Conditions: S. cerevisiae SKN7-toxicity growth rescue, plate reader; at 19.5 µM (top of the series)

| Structure (SMILES) | growth rescue activity |
| --- | --- |
| COc1cc([N+](=O)[O-])cc(/C=N/NC(=O)c2cncc(Br)c2)c1O | -13.3% (inactive) |
| Cc1[nH]n(C(N)=S)c(=O)c1N=Nc1ccc2ccccc2c1 | -41.4% (inactive) |
| O=[N+]([O-])c1cc(Oc2cccnc2)cc([N+](=O)[O-])c1 | 5.86% (inactive) |
| CCCOc1ccc(CSCCNC(=S)Nc2ccccc2)cc1 | 22% (inactive) |
| O=[N+]([O-])c1ccc2c(c1)Cc1cc(O)ccc1-2 | 4.71% (inactive) |
| CCCCn1c(=O)c(C(=O)NCc2ccncc2)c(O)c2ccccc21 | 33% (inactive) |
| O=S(=O)(Nc1cc(Sc2ncn[nH]2)c(O)c2ccccc12)c1ccccc1 | -4.91% (inactive) |
| O=C(NCCCNc1ccc(C(F)(F)F)cc1[N+](=O)[O-])c1ccc(Cl)cc1 | -14.8% (inactive) |
| COc1ccc2oc(=O)c(-c3csc(Nc4cccc(O)c4)n3)cc2c1 | 12.4% (inactive) |
| CCOC(=O)c1c2c(n(-c3ccc(OC)cc3)c1C)C(=O)C(=O)c1ccccc1-2 | -68% (inactive) |
| CCCCCCCn1c(=O)c(C(=O)OC)c(N)c2ccccc21 | -87.1% (inactive) |
| COc1cccc(C(=O)Nc2sc(C(C)C)cc2C(N)=O)c1OC | 93.8% (inactive) |
| CCOC(=O)CN1C(=O)C2Cc3ccccc3CN2C1=S (stereo not given) | 41.4% (inactive) |
| Fc1ccc(N2CCN(c3ccc4c(C(F)(F)F)cc(C(F)(F)F)nc4n3)CC2)cc1 | 53.6% (inactive) |
| O=C(NCc1ccncc1)c1ccccc1Nc1ccc(SC(F)F)cc1 | -49.8% (inactive) |
| Cc1onc(-c2ccccc2)c1C(=O)NC(=S)NNC(=O)c1ccc(O)cc1O | -33.4% (inactive) |
| O=C(NCCN1C(=O)S/C(=C\c2cccc(Cl)c2Cl)C1=O)C1=COCCO1 | 13.6% (inactive) |
| Cc1csc(NC(=O)C(C)Oc2ccc(Cl)cc2C)n1 (stereo not given) | 10.9% (inactive) |
| CCN(CC)c1ccc(/C=C/c2ccc3ccc(OC)cc3[n+]2CC)cc1 | -52.7% (inactive) |

| Structure (SMILES) | growth rescue activity |
| --- | --- |
| O=[N+]([O-])c1ccc(Sc2ncccn2)c([N+](=O)[O-])c1 | -6.92% (inactive) |
| Cc1ccc(Nc2cc(C)nn2-c2nc(C)cc(C)n2)cc1 | -73.3% (inactive) |
| CCCOc1ccc(S(=O)(=O)n2cc(F)c(=O)[nH]c2=O)cc1 | 0% (inactive) |
| CSc1nc(-c2ccccc2F)c(C#N)c(=O)n1C | 47.9% (inactive) |
| Cc1ccc(-c2c3c(nc4sc(C(N)=O)c(N)c24)CCCC3)o1 | -35.3% (inactive) |
| CCN(CC)C(=O)C1CCCc2c1[nH]c1ccc(Cl)cc21 (stereo not given) | -45% (inactive) |
| Cc1ccoc1C(=O)Nc1cccc(Oc2ccccc2)c1 | -88.5% (inactive) |
| O=C(N1CCN(c2ccccc2)CC1)C1(S(=O)(=O)c2ccc(Cl)cc2)CC1 | 21.3% (inactive) |
| Clc1ccc(C2=NCCN2)cc1 | -65.4% (inactive) |
| Nc1nc(-c2ccccc2)c(-c2ccc([N+](=O)[O-])cc2)s1 | -79.9% (inactive) |
| Cc1ccc(-n2nnnc2SCC(=O)N2CCc3ccccc3C2)c(C)c1 | -18.8% (inactive) |
| COc1cccc2c1C(=O)c1c(O)c3c(c(O)c1C2=O)C[C@@](O)(C(C)=O)C[C@@H]3O[C@H]1C[C@H](N)[C@H](O)[C@H](C)O1 | 23.7% (inactive) |
| O=C(C1COc2ccccc2O1)N1CCN(c2ccccc2Cl)CC1 (stereo not given) | -13% (inactive) |
| CCCn1c(=O)c(C(=O)NCc2ccc(OC)c(OC)c2)c(O)c2ccccc21 | -19.9% (inactive) |
| CCOc1ccc(S(=O)(=O)Nc2cc(SCC(=O)O)c(O)c3ccccc23)cc1 | 21.7% (inactive) |
| Cc1cc(C)c2sc(NNC(=O)c3ccc(S(=O)(=O)N4CCc5ccccc5C4)cc3)nc2c1 | -31.4% (inactive) |
| CNc1ccc2oc(C[C@H]3O[C@@]4(CC[C@H]3C)O[C@H]([C@H](C)C(=O)c3ccc[nH]3)[C@H](C)C[C@H]4C)nc2c1C(=O)O | -78.1% (inactive) |
| Clc1nc(-c2ccccn2)nc2scc(-c3ccccc3)c12 | -76.2% (inactive) |
| O=C1C(Cl)=C(NCc2cccnc2)C(=O)c2ccccc21 | 26.7% (inactive) |

System: S. cerevisiae SKN7-toxicity growth rescue, plate reader
Test: as above
Conditions: not given

| Structure (SMILES) | AC40 |
| --- | --- |
| COc1ccc2c(c1)OC[C@H]1[C@H]2N2C(=O)c3cc(OC)ccc3NC(=O)[C@@]2(C)[C@H]1c1ccccc1 | 9.31 µM |
| Cc1ccccc1N1CCN(C2=NC(=O)/C(=C\c3cccs3)S2)CC1 | 4.83 µM |
| CCCCCCCCCCOC(=O)Cn1c(COc2ccccc2)[n+](C)c2ccccc21 | 3.02 µM |
| N/C(Cc1ccc(Cl)cc1Cl)=N\OC(=O)c1ccccc1F | 0.718 µM |
| O=C(N/N=C/c1sc(N2CCOCC2)nc1-c1ccccc1)c1ccccc1O | 3.04 µM |
| Cc1ccc(CN2CC(C(=O)N(Cc3nnc(-c4ccccc4Cl)o3)C3CC3)CC2=O)cc1 (stereo not given) | 8.15 µM |
| O=c1c2c(-c3ccc(Cl)cc3)csc2ncn1/N=C/c1cccc([N+](=O)[O-])c1O | 1.23 µM |
| Cc1[nH]n(-c2cccc3ccccc23)c(=O)c1/C=N/NC(=O)c1cccc([N+](=O)[O-])c1 | 0.738 µM |
| CCCCCCCCCCOC(=O)Cn1c(COc2ccc(OC)cc2)[n+](C)c2ccccc21 | 3.33 µM |
| Cc1ccc(NC(=O)CN(C)C(=O)c2cccnc2Nc2cccc(C(F)(F)F)c2)cc1 | 5.69 µM |
| COc1ccc(N(C(=O)c2ccncc2)S(=O)(=O)c2ccc(F)cc2)cc1 | 3.67 µM |
| CC(=O)NC(c1ccc(Cl)cc1Cl)c1ccc2cccnc2c1O (stereo not given) | 1.38 µM |
